Test results published in US20240336601A1 (Chulalongkorn University, priority 2020, published 2024).
pIC50: −log10 of the molar value.

What was measured:
[1] = molecular target: interaction between PD-1 and PD-L1 (Homo sapiens, UniProt Q9NZQ7); assay: PD-1/PD-L1 protein-protein interaction assay (ALPHA); assay type: binding; settings: 2 nM His-tagged human PD-L1, 0.6 nM PD-1-Fc, AlphaScreen
PD-1/PD-L1 interaction = molecular target: T1, PD-1/PD-L1 interaction (Homo sapiens, UniProt Q9NZQ7); assay: PD-1/PD-L1 blockage cell-based bioassay (Jurkat NFAT luciferase / CHO-PDL1 co-culture); settings: Jurkat NFAT cells co-cultured with CHO-PDL1 cells, 6 h, luminescence
T1 construct: expressed in transfected cells
T1 sequence (Q9NZQ7 19-290): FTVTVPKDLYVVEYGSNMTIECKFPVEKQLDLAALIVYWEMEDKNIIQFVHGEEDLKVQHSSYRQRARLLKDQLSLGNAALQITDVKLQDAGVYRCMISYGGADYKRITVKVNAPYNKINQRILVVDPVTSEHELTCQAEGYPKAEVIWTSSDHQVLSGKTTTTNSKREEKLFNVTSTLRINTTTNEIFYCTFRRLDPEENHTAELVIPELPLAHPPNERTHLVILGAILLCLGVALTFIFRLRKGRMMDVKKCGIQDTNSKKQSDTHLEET

interaction between PD-1 and PD-L1, sequence (Q9NZQ7 19-238 limits assumed): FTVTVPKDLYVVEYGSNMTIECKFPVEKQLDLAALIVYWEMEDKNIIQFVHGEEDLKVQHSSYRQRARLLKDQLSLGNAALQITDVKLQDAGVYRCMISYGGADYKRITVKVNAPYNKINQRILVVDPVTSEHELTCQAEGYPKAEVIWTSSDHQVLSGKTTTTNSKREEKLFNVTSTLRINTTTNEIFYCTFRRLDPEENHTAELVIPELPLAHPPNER

Row | pIC50 [1] | pIC50 (PD-1/PD-L1 interaction) | SMILES
1 | > 9.00 | 5.70 to 6.70 | COc1cc(-n2ncc3c(-c4cccc(-c5ccc(CN[C@H]6C[C@@H](O)C6)c(OC)n5)c4Cl)cccc32)cc(OC)c1CN[C@@H](C)CO [Example 119, cis-3-(((6-(2-chloro-3-(1-(4-((((S)-1-hydroxypropan-2-yl)amino)methyl)-3,5-dimethoxyphenyl)-1H-indazol-4-yl)phenyl)-2-methoxypyridin-3-yl)methyl)amino)cyclobutanol]
2 | < 7.00 |  | COc1cc(-c2c[nH]c3c(-c4ccc5c(c4)OCCO5)cccc23)cc(OC)c1CNC[C@@H]1CCC(=O)N1 [Example 24]
3 | < 7.00 |  | COc1nc(-n2ccc3c(-c4ccc5c(c4)OCCO5)cccc32)ccc1CN[C@@H](CO)C(=O)O [Example 10]
4 | < 7.00 |  | Cn1cc(-n2ccc3c(-c4ccc5c(c4)OCCO5)cccc32)c2ncc(CNCC(C)(C)C(=O)O)cc21 [Example 25]
5 | < 7.00 |  | N#Cc1cccc(COc2cc(-n3ccc4c(-c5ccc6c(c5)OCCO6)cccc43)ccc2CNCCO)c1 [Example 6, 3-((5-(4-(2,3-dihydrobenzo[b][1,4]dioxin-6-yl)-1H-indol-1-yl)-2-(((2-hydroxyethyl)amino)methyl)phenoxy)methyl)benzonitrile]
6 | < 7.00 |  | Cc1nn(CCNC[C@@H]2CCC(=O)N2)c2ccc(-n3ccc4c(-c5ccc6c(c5)OCCO6)cccc43)cc12 [Example 62, (S)-5-(((2-(5-(4-(2,3-dihydrobenzo[b] [1,4]dioxin-6-yl)-1H-indol-1-yl)-3-methyl-1H-indazol-1-yl)ethyl)amino)methyl)pyrrolidin-2-one]
7 | < 7.00 |  | COc1nc(-n2ccc3c(-c4ccc5c(c4)OCCO5)cccc32)ccc1CN1CC(C)(O)C1 [Example 12, ((6-(4-(2,3-dihydrobenzo[b][1,4]dioxin-6-yl)-1H-indol-1-yl)~2~methoxypyridin-3-yl)methyl)-L-serine]
8 | < 7.00 |  | COc1nc(N2CCc3c(-c4ccc5c(c4)OCCO5)cccc32)ccc1CNC[C@@H]1CCC(=O)N1 [Example 80, (S)-5-((((6-(4-(2,3-dihydrobenzo[b][1,4]dioxin-6-yl)indolin-1-yl)-2-methoxypyridin-3-yl)methyl)amino)methyl)pyrrolidin-2-one]
9 | < 7.00 |  | COc1cc(C(=O)n2ccc3c(-c4ccc5c(c4)OCCO5)cccc32)cc(OC)c1CNC(C)(CO)C(=O)O (centres unmarked) [Example 7, 2-((4-(4-(2,3-dihydrobenzo[b][1,4]dioxin-6-yl)-1H-indole-1-carbonyl)-2,6-dimethoxybenzyl)amino)-3-hydroxy-2-methylpropanoic acid]
10 | < 7.00 |  | c1cc(-c2ccc3c(c2)OCCO3)c2ccn(-c3nc4c(s3)CNCC4)c2c1 [Example 59, 2-(4-(2,3-dihydrobenzo[b] [1,4]dioxin-6-yl)-1H-indol-1-yl)-4,5,6,7-tetrahydrothiazolo[5,4-c]pyridine]
11 | < 7.00 |  | COc1cc(-n2ccc3c(-c4ccc5c(c4)OCCO5)cccc32)cc(OC)c1CN1C[C@H](O)C[C@@H]1C(=O)O [Example 2, (2R,4R)-1-(4-(4-(2,3-dihydrobenzo[b][1,4]dioxin-6-yl)-1H-indol-1-yl)-2,6-dimethoxybenzyl)-4-hydroxypyrrolidine-2-carboxylic acid]
12 | < 7.00 |  | COc1cc(-n2ccc3c(-c4ccc5c(c4)OCCO5)cccc32)cc(OC)c1CNCCNC(C)=O [Example 3, N-(2-((4-(4-(2,3-dihydrobenzo[b][1,4]dioxin-6-yl)-1H-indol-1-yl)-2,6-dimethoxybenzyl)amino)ethyl)acetamide]
13 | 7.00 to 8.00 |  | COc1cc(-c2cn(C)c3c(-c4ccc5c(c4)OCCO5)cccc23)cc(OC)c1CNC[C@@H]1CCC(=O)N1 [Example 23]
14 | < 7.00 |  | Cc1cc2cc(CNC[C@@H]3CCC(=O)N3)cnc2c(-n2ccc3c(-c4ccc5c(c4)OCCO5)cccc32)n1 [Example 63, (S)-5-((((8-(4-(2,3-dihydrobenzo[b][1,4]dioxin-6-yl)-1H-indol-1-yl)-6-methyl-1,7-naphthyridin-3-yl)methyl)amino)methyl)pyrrolidin-2-one]

Further lines, the molecule ahead of its results:

Row | SMILES | pIC50 [1] | pIC50 (PD-1/PD-L1 interaction)
15 | COc1cc(-n2ccc3c(-c4ccc5c(c4)OCCO5)cccc32)cc(OC)c1CNC1CNC(=O)C1 (centres unmarked) [Example 16] | < 7.00 | 
16 | COc1cc(-n2ncc3c(-c4cccc(-c5ccc(CNC[C@H]6C[C@@H](O)C6)c(OC)n5)c4Cl)cccc32)cc(OC)c1CN1CC(C)(C(=O)O)C1 [Example 47] | > 9.00 | > 6.70
17 | COc1cc(-n2ncc3c(-c4cccc(Nc5nc(C(F)F)nc6cc(CN7CC[C@@H](O)C7)cnc56)c4C)cccc32)cc(OC)c1CN(C)C12CCC(C(=O)O)(CC1)CC2 [Example 166, (R)-4-((4-(4-(3-((2-(difluoromethyl)-7-((3-hydroxypyrrolidin-1-yl)methyl)pyrido[3,2-d]pyrimidin-4-yl)amino)-2-methylphenyl)-1H-indazol-1-yl)-2,6-dimethoxybenzyl)(methyl)amino)bicyclo[2.2.2]octane-1-carboxylic acid] | > 9.00 | > 6.70
18 | COc1nc(-n2ccc3c(-c4ccc5c(c4)OCCO5)cccc32)cnc1CNC[C@@H]1CCC(=O)N1 [Example 60] | < 7.00 | 
19 | CC(CO)(NCc1ccc(-n2ccc3c(-c4ccc5c(c4)OCCO5)cccc32)cc1OCc1cccc(C#N)c1)C(=O)O (centres unmarked) [Example 5, 2-((2-((3-cyanobenzyl)oxy)-4-(4-(2,3-dihydrobenzo[b][1,4]dioxin-6-yl)-1H-indol-1-yl)benzyl)amino)-3-hydroxy-2-methylpropanoic acid] | < 7.00 | 
20 | COc1nc(-n2ccc3c(-c4ccc5c(c4)OCCO5)cccc32)ccc1CN1CC2(C1)CN(C(C)=O)C2 [Example 58, 1-(6-((6-(4-(2,3-dihydrobenzo[b][1,4]dioxin-6-yl)-1H-indol-1-yl)-2-methoxypyridin-3-yl)methyl)-2,6-diazaspiro[3.3]heptan-2-yl)ethanone] | < 7.00 | 
21 | COc1cc(-n2ccc3c(-c4cccc(NC(=O)c5ccc(CNC(C)(CO)C(=O)O)cc5)c4C)cccc32)cc(OC)c1CNC(C)(CO)C(=O)O (centres unmarked) [Example 56, 2-((4-((3-(1-(4-(((2-carboxy-1-hydroxypropan-2-yl)amino)methyl)-3,5-dimethoxyphenyl)-1H-indol-4-yl)-2-methylphenyl)carbamoyl)benzyl)amino)-3-hydroxy-2-methylpropanoic acid] | < 7.00 | 
22 | Cc1cc(CN2CC(C)(C(=O)O)C2)cc(-n2ccc3c(-c4ccc5c(c4)OCCO5)cccc32)n1 [Example 86, 1-((2-(4-(2,3-dihydrobenzo[b][1,4]dioxin-6-yl)-1H-indol-1-yl)-6-methylpyridin-4-yl)methyl)-3-methylazetidine-3-carboxylic acid] | < 7.00 | 
23 | O=C(O)[C@H](CO)NCc1ccc(-n2ccc3c(-c4ccc5c(c4)OCCO5)cccc32)nc1 [Example 9] | < 7.00 | 
24 | Cn1c(CN[C@@H](CO)C(=O)O)cc2ccc(-n3ccc4c(-c5ccc6c(c5)OCCO6)cccc43)cc21 [Example 57, (S)-2-(((4-(2,3-dihydrobenzo[b][1,4]dioxin-6-yl)-1′-methyl-1′H-[1,6′-biindol]-2′-yl)methyl)amino)-3-hydroxypropanoic acid] | < 7.00 | 
25 | COc1cc(-n2ccc3c(-c4ccc5c(c4)OCCO5)cccc32)cnc1CNC[C@@H]1CCC(=O)N1 [Example 61, (S)-5-((((5-(4-(2,3-dihydrobenzo[b][1,4]dioxin-6-yl)-1H-indol-1-yl)-3-methoxypyridin-2-yl)methyl)amino)methyl)pyrrolidin-2-one] | < 7.00 | 
26 | COc1cc(CNC[C@@H]2CCC(=O)N2)cc(-n2ccc3c(-c4ccc5c(c4)OCCO5)cccc32)c1 [Example 19] | < 7.00 | 
